Where two headings read alike, the source gives them in different places.
What was measured:
[1] = system: pseudotyped HCV GT1b particles (HCVpp); assay: microbe, parasite or virus in culture; type: cell-based, HCV GT1b Con1 strain
[2] = system: pseudotyped VSV G particles (VSVpp); assay: microbe, parasite or virus in culture; type: cell-based, vesicular stomatitis virus
[3] = Hepatitis C virus, GT1B, 72 h, read-out: HCVpp GT-1b (EC50, μM)
[4] = Vesicular stomatitis virus, 72 h, read-out: VSVpp (EC50, μM)

Compound	EC50 [1, 3] [µM]	EC50 [2, 4] [µM]	EC50 ([1]; read-out: HCVpp GT-1b (EC50)) [µM]	EC50 ([2]; read-out: VSVpp (EC50)) [µM]
CNC(=O)c1ccc(-c2c(Cl)cc(Nc3n[nH]c(N)n3)cc2C(F)(F)F)cn1 [Compound 32, 5-(4-(5-amino-1H-1,2,4-triazol-3-ylamino)-2-chloro-6-(trifluoromethyl)phenyl)-N-methylpicolinamide]	0.169	21.8		
Nc1nc(Nc2cc(Cl)c(-c3ccnnc3)c(Cl)c2)n[nH]1 [Compound 33, N3-(3,5-dichloro-4-(pyridazin-4-yl)phenyl)-1H-1,2,4-triazole-3,5-diamine]	0.78	10.6		
CC(=O)c1sccc1-c1c(Cl)cc(Nc2n[nH]c(N)n2)cc1Cl [Compound 34, 1-{3-[4-(5-Amino-1H-[1,2,4]triazol-3-ylamino)-2,6-dichloro-phenyl]-thiophen-2-yl}-ethanone]	0.144	1.8		
Nc1nc(Nc2cc(Cl)c(-c3ccncc3)c(Cl)c2)n[nH]1 [Compound 35, N-3-(3,5-Dichloro-4-(pyridin-4-yl)phenyl)-1H-1,2,4-triazole-3,5-diamine]	0.338	2.5		
Nc1nc(Nc2cc(Cl)c(-c3ccc(Cl)s3)c(Cl)c2)n[nH]1 [Compound 36, N-3-[3,5-Dichloro-4-(5-chloro-thiophen-2-yl)-phenyl]-1H-[1,2,4]triazole-3,5-diamine]	0.558	11.9		
Nc1nc(Nc2cc(Cl)c(-c3cccnc3)c(Cl)c2)n[nH]1 [Compound 37, N-3-(3,5-Dichloro-4-pyridin-3-yl-phenyl)-1H-[1,2,4]triazole-3,5-diamine]	0.413	8.1		
Nc1nc(Nc2cc(Cl)c(-c3cc[nH]n3)c(Cl)c2)n[nH]1 [Compound 38, N-3-[3,5-Dichloro-4-(1H-pyrazol-3-yl)-phenyl]-1H-[1,2,4]triazole-3,5-diamine]	3.39	35.8		
Nc1nc(Nc2cc(Cl)c(-c3cncnc3)c(Cl)c2)n[nH]1 [Compound 39, N-3-(3,5-Dichloro-4-pyrimidin-5-yl-phenyl)-1H-[1,2,4]triazole-3,5-diamine]	0.536	5.1		
COc1ncc(-c2c(Cl)cc(Nc3n[nH]c(N)n3)cc2Cl)cn1 [Compound 40, N-3-[3,5-Dichloro-4-(2-methoxy-pyrimidin-5-yl)-phenyl]-1H-[1,2,4]triazole-3,5-diamine]	0.52	3.3		
Nc1nc(Nc2cc(Cl)c(-c3ccc(C(F)(F)F)nc3)c(Cl)c2)n[nH]1 [Compound 41, N-3-[3,5-Dichloro-4-(6-trifluoromethyl-pyridin-3-yl)-phenyl]-1H-[1,2,4]triazole-3,5-diamine]	0.703	32.6		
Cn1cc(-c2c(Cl)cc(Nc3n[nH]c(N)n3)cc2Cl)c(C(F)(F)F)n1 [Compound 42, N-3-[3,5-Dichloro-4-(1-methyl-3-trifluoromethyl-1H-pyrazol-4-yl)-phenyl]-1H-[1,2,4]triazole-3,5-diamine]	0.0527	2.4		
Nc1nc(Nc2cc(Cl)c(-c3cncc(Cl)c3)c(Cl)c2)n[nH]1 [Compound 43, N-3-[3,5-Dichloro-4-(5-chloro-pyridin-3-yl)-phenyl]-1H-[1,2,4]triazole-3,5-diamine]	0.771	5.3		
COc1cccc(-c2c(Cl)cc(Nc3n[nH]c(N)n3)cc2Cl)n1 [Compound 44, N-3-[3,5-Dichloro-4-(6-methoxy-pyridin-2-yl)-phenyl]-1H-[1,2,4]triazole-3,5-diamine]	1.16	7.8		
N*3*-{3-Chloro-4-[6-(propane-2-sulfonyl)-pyridin-3-yl]-5-trifluoromethyl-phenyl}-1H-[1,2,4]triazole-3,5-diamine [Compound 23]			0.179	7.5
tert-Butyl 4-(4-(5-amino-1H-1,2,4-triazol-3-ylamino)-2-chloro-6-(trifluoromethyl)phenyl)-5,6-dihydropyridine-1(2H)-carboxylate [Compound 20]			0.073	13.6

Source: patent US9540345B2, “Antiviral compounds” (priority 2013, dated 2017)
